Measured values: US20220135526A1, “QUATERNARY AMMONIUM SALT COMPOUND, PREPARATION METHOD THEREFOR AND USE THEREOF” (WEST CHINA HOSPITAL, SICHUAN UNIVERSITY, priority 2019, published 2022)

Experiments:
back skin of SD rat = assay: Local anesthetic effect by subcutaneous infiltration (back skin, Von Frey fiber 100 g); assay type: in vivo; details: SD rats, 0.5 mL subcutaneous in saline; compounds 6 mmol/L, controls 0.75% (22 mmol/L) and 2% (74 mmol/L)
Protocol: After the back of SD rat weighing 250-300 g (half female and half male) was shaved and disinfected, a circle with a diameter of about 1.5 cm was drawn on the side of the exposed back, and the circle is divided into 6 equal parts. […] Among the Von Frey fiber yarns, the one with a strength of 100 g was bound to the needle for local skin stimulation. One minute After the drug was injected, the above method was used to stimulate in 6 divisions. […] If back skin contraction was observed, the local anesthetic effect was considered as loss. […] Each compound was tested with 10 rats.

rat's sciatic nerve = assay: Local anesthetic effect after injection near the rat sciatic nerve (von Frey stimulation; Postural Extensor Thrust for motor function); assay type: in vivo; details: SD rats, 0.5 mL near sciatic nerve, compounds 20 mmol/mL; for Duration of motor block: Postural Extensor Thrust; for Duration of motor block / Duration of sensory block: levobupivacaine 0.75%, lidocaine 2%; for Local anesthesia onset time: levobupivacaine 0.75% (22 mmol/L), lidocaine 2% (74 mmol/L); for Duration of sensory block: von Frey
Protocol: Dosage: for lidocaine group, lidocaine was formulated with distilled water into a solution at the concentration of 2% (74 mmol/L); for levobupivacaine group, levobupivacaine was formulated with distilled water into a solution at the concentration of 0.75% (22 mmol/L); the compound of the present invention was formulated with distilled water into a solution at the concentration of […].
The injection volume for each rat was 0.5 mL, which was guided by a nerve locator and injected near the rat's sciatic nerve. Using von Frey stimulator, the rats were stimulated the soles of the feet in the injected side, to observe the effect of local anesthesia. Meanwhile, Postural Extensor Thrust (PET) was used to evaluate the motor function of the rat: the rat was lifted vertically and the hindlimb in the injected side pedaled on the platform of the electronic balance. […] When the limb was completely paralyzed, the reading was the limb's own weight, about 20 g. If the measured value was more than half of the difference between the baseline and the limb weight, the motor function was regarded as recovery, and if the value was […], the motor function was regarded as loss.

SMILES | Duration of local anesthesia (median) (back skin of SD rat) | Local anesthesia onset time (median) (back skin of SD rat) | Duration of motor block (rat's sciatic nerve) | Local anesthesia onset time (rat's sciatic nerve) | Duration of sensory block (rat's sciatic nerve)
CCCCCCCCCC[N+](CO)(CCOCCN1CCCCC1C(=O)Nc1c(C)cccc1C)CC(=O)Nc1c(C)cccc1C (stereo not shown) [Example 72 product] | 72 h | 1 min | 10 h | 1 min | 65 h
CCCCC[N+](CCO)(CCCCCCN1CCCCC1C(=O)Nc1c(C)cccc1C)CC(=O)Nc1c(C)cccc1C.[Br-] (stereo not shown) [Example 13 product] | 53 h | 4 min | 14 h | 4 min | 55 h
CCCCC[N+](CCCO)(CCCCCCN1CCCCC1C(=O)Nc1c(C)cccc1C)CC(=O)Nc1c(C)cccc1C.[Br-] (stereo not shown) [Example 14 product] | 75 h | 2 min | 13 h | 5 min | 41 h
Cc1cccc(C)c1NC(=O)C[N+]1(CCCCN2CCCCC2C(=O)Nc2c(C)cccc2C)CC(C)OC(C)C1 (stereo not shown) [Example 50 product] | 56 h | 2 min | 13 h | 5 min | 56 h
CCCCC[N+](CCCCC)(CCCN1CCCCC1C(=O)Nc1c(C)cccc1C)CC(=O)Nc1c(C)cccc1C (stereo not shown) [Example 1 product] | 25 h | 1 min | 21 h | 3 min | 32 h
CCSCC[N+](CCO)(CCCCCCN1CCCC1C(=O)Nc1c(C)cccc1C)CC(=O)Nc1c(C)cccc1C (stereo not shown) [Example 62 product] | 88 h | 1 min | 21 h | 5 min | 51 h
CCCCC[N+](CCCCC)(CCCCCCN1CCC1C(=O)Nc1c(C)cccc1C)CC(=O)Nc1c(C)cccc1C (stereo not shown) [Example 65 product] | 68 h | 1 min | 19 h | 5 min | 59 h
CCCCCC[N+](CCCCCCN1CCCCC1C(=O)Nc1c(C)cccc1C)(CCOCCC)CC(=O)Nc1c(C)cccc1C (stereo not shown) [Example 37 product] | 64 h | 1 min | 17 h | 1 min | 45 h
CCCCC[N+](CCCCC)(CCCCCCCN1CCCCCC1C(=O)Nc1c(C)cccc1C)CC(=O)Nc1c(C)cccc1C (stereo not shown) [Example 68 product] | 73 h | 3 min | 21 h | 1 min | 79 h
Cc1cccc(C)c1NC(=O)C[N+]1(CCCOCCCN2CCCCC2C(=O)Nc2c(C)cccc2C)CC(C)OC(C)C1 (stereo not shown) [Example 32 product] | 56 h | 2 min | 17 h | 2 min | 46 h
Cc1cccc(C)c1NC(=O)C[N+]1(CCCCN2CCCCC2C(=O)Nc2c(C)cccc2C)C(C)COCC1C (stereo not shown) [Example 51 product] | 89 h | 1 min | 19 h | 5 min | 44 h
CCCCC[N+](CCCCCCCCN1CCCCCCC1C(=O)Nc1c(C)cccc1C)(CCOCC)CC(=O)Nc1c(C)cccc1C (stereo not shown) [Example 25 product] | 82 h | 3 min | 12 h | 5 min | 44 h
CCCCC[N+](CCO)(CCCCCCN1CCCC1C(=O)Nc1c(C)cccc1C)CC(=O)Nc1c(C)cccc1C (stereo not shown) [Example 59 product] | 72 h | 1 min | 15 h | 1 min | 54 h
CCOCC[N+](CCO)(CCCCCCN1CCCC1C(=O)Nc1c(C)cccc1C)CC(=O)Nc1c(C)cccc1C (stereo not shown) [Example 61 product] | 86 h | 1 min | 11 h | 3 min | 
Cc1cccc(C)c1NC(=O)C[N+]1(CCCCCCN2CCCCC2C(=O)Nc2c(C)cccc2C)CCOCC1 (stereo not shown) [Example 52 product] | 85 h | 3 min | 15 h | 2 min | 56 h
Cc1cccc(C)c1NC(=O)C[N+]1(CCCCN2CCCCC2C(=O)Nc2c(C)cccc2C)CCOC(C)C1 (stereo not shown) [Example 48 product] | 73 h | 2 min | 15 h | 5 min | 57 h
Cc1cccc(C)c1NC(=O)C[N+](CCCCCCCS)(CCCCCCCN1CCCCC1C(=O)Nc1c(C)cccc1C)CCCCCC(=O)O (stereo not shown) [Example 45 product] | 89 h | 1 min | 20 h | 3 min | 58 h
CCCCC[N+](CCCCO)(CCCCCCN1CCCCC1C(=O)Nc1c(C)cccc1C)CC(=O)Nc1c(C)cccc1C.[Br-] (stereo not shown) [Example 16 product] | 54 h | 2 min | 17 h | 5 min | 60 h
CCCOCCCC[N+](CCCCCC(=O)O)(CCCSCCCN1CCCCC1C(=O)Nc1c(C)cccc1C)CC(=O)Nc1c(C)cccc1C (stereo not shown) [Example 29 product] | 73 h | 2 min | 15 h | 5 min | 50 h
Cc1cccc(C)c1NC(=O)C[N+](CCO)(CCCCO)CCCCCCN1CCCC1C(=O)Nc1c(C)cccc1C (stereo not shown) [Example 60 product] | 66 h | 2 min | 20 h | 1 min | 54 h
Cc1cccc(C)c1NC(=O)C[N+](CO)(CCCCO)CCCCCCN1CCCCC1C(=O)Nc1c(C)cccc1C.[Br-] (stereo not shown) [Example 19 product] | 62 h | 1 min | 10 h | 5 min | 39 h
CCCCCCCCCC[N+](CCCCCCCC)(CCCCCCCCCCCN1CCCCC1C(=O)Nc1c(C)cc(C)cc1C)CC(=O)Nc1c(C)cccc1C (stereo not shown) [Example 24 product] | 89 h | 2 min | 11 h | 4 min | 54 h
